Like-named read-outs stand apart in the source and are kept apart here.
Tests used:
progesterone receptor = progesterone receptor (Homo sapiens, UniProt P06401); assay: Secondary pharmacodynamics binding, progesterone receptor; conditions: in vitro
[1] = Clinical Pharmacology Study: single 200 mg dose PK, all 3 cohorts; conditions: human, in vivo, oral
Protocol: The geometric mean T1/2 following a single 200 mg dose was approximately 40 hours under fed condition.

[2] = Plasma protein binding, human; format: in vitro ADME; conditions: read-out: free fraction
[3] = Tissue distribution in rat; format: in vivo; conditions: for Kp at 3 days: 100 mg/kg/day PO 3 days
[4] = 3-month GLP oral toxicity study in rats; format: in vivo, rat; conditions: for AUC(0-t) / Cmax: po, 300 mg/kg/day
Protocol: Male and female rats, 10/sex/group, were administered 0 (vehicle), 30, 100, or 300 mg/kg/day. Assessment of toxicity was based on mortality, clinical observations, BWs, food consumption, ophthalmic examinations, and clinical and anatomic pathology. Blood samples for TK were obtained from a satellite group of animals.

clinical = conditions: human, in vivo; for AUC: AUCtau
Protocol: Study Design: In the FIH Study: Part A is a Phase I monotherapy dose escalation, and Part B is a Phase 2 monotherapy expansion at 2 RP2D doses (200 mg QD, 500 mg QD).

ER = target: T1, ER (Homo sapiens, UniProt P03372); assay: Tumor ER levels in MCF7 xenograft; format: in vivo, mouse; parameters: from tissue; host or cells: MCF7/estradiol xenograft tumour in mice; conditions: all doses (3, 10, 30 mg/kg), study termination
T1 sequence (P03372 1-595): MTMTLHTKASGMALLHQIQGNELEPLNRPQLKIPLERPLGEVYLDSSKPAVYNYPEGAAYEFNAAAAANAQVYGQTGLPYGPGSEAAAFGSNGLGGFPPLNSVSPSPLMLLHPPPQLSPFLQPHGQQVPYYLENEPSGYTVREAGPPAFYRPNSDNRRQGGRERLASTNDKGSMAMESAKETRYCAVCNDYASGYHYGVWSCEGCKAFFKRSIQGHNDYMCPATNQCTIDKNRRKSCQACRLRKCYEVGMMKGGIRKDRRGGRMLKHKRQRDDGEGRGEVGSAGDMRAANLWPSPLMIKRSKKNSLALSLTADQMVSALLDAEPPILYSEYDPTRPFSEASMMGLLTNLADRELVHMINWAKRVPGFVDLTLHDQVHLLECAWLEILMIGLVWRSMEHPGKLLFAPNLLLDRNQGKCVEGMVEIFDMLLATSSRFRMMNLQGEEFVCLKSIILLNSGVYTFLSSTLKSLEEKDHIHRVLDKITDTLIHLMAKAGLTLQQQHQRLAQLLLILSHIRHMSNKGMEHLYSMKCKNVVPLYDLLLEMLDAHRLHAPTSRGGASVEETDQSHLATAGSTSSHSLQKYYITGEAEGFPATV
Protocol: The 30 mg/kg dose was associated with a mean AUC0-24 of 5,717 ng·h/mL. The tumor ER levels were reduced by ≥94% at all doses compared to mice administered vehicle only (FIG. 3B).
The 30 mg/kg dose was associated with a mean AUC0-24 of 5,717 ng·h/mL.

Sequence of progesterone receptor (P06401 whole entry, species assumed): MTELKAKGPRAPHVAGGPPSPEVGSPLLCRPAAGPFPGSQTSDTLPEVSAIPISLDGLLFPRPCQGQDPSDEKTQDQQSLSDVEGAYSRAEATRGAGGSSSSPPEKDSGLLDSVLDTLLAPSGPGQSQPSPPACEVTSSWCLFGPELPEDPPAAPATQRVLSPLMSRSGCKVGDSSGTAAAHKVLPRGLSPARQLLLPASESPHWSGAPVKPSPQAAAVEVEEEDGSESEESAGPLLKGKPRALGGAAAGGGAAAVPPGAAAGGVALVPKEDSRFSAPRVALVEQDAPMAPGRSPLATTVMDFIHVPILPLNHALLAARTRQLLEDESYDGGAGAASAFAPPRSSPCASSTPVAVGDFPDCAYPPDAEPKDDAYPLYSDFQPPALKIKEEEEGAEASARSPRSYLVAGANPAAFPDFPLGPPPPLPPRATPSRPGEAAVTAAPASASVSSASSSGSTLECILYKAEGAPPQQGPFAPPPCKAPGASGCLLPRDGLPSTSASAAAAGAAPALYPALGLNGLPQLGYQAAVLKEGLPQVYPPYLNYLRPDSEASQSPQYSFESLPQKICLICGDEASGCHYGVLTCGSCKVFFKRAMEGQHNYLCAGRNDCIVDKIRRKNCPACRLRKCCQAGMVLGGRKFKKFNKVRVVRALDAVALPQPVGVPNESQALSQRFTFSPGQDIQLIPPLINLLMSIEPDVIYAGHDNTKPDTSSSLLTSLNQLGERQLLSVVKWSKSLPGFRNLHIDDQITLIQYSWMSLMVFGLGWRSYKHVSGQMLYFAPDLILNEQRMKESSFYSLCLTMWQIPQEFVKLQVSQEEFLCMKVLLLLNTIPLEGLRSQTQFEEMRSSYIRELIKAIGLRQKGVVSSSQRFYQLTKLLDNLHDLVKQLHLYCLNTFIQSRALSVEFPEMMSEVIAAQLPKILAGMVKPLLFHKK

**Q.** What does the source list for `O=C1CC[C@H](N2Cc3cc(N4CCN(CC5CCN(c6ccc([C@@H]7c8ccc(O)cc8CC[C@@H]7c7ccccc7)cc6)CC5)CC4)ccc3C2=O)C(=O)N1` [Compound A, (S)-3-(5-(4-((1-(4-((1R,2S)-6-hydroxy-2-phenyl-1,2,3,4-tetrahydronaphthalen-1-yl)phenyl)piperidin-4-yl)methyl)piperazin-1-yl)-1-oxoisoindolin-2-yl)piperidine-2,6-dione]?
**A.** binding (progesterone receptor): bound; half-life ([1]; fed, read-out: geometric mean T1/2 (converted)): ~40 h; Tmax ([1]; read-out: median Tmax across cohorts): 6 to 8 h; fraction unbound at 1 μM [2]: 0.124; tissue accumulation upon repeat-dose [3]: no signs of tissue accumulation; Kp at 3 days ([3]; brain, read-out: tissue plasma ratio, brain): ≤ 0.1; blood brain barrier crossing ([3]; in vivo): does not readily cross the blood brain barrier; Kp at 3 days ([3]; lung, read-out: tissue plasma ratio, lung): 5.6 to 13.9; sex differences in Cmax and AUC0-24 ([4]; both, rat, in vivo): less than 2 fold; NOAEL ([4]; female rats, 3 months oral): a NOAEL was not determined; AUC(0-t) ([4]; female, rat, in vivo): 75000 ng·h/mL; Cmax ([4]; female, rat, in vivo): 3710 ng/mL; AUC(0-t) ([4]; male, rat, in vivo): 88500 ng·h/mL; Cmax ([4]; male, rat, in vivo): 4330 ng/mL; NOAEL at 3 months ([4]; rat, in vivo, male rats, 3 months oral): 300 mg/kg/day; half-life (clinical; 30 mg): 31 h; Tmax (clinical; 30 mg, Tmax): 4 h; half-life (clinical; 60 mg): 33 h; Tmax (clinical; 60 mg, Tmax): 6 h; half-life (clinical; 100 mg): 29 h; Tmax (clinical; 100 mg, Tmax): 5.8 h; half-life (clinical; 120 mg): 27 h; Cmax (clinical; 120 mg): 404 ng/mL; Tmax (clinical; 120 mg, Tmax): 5.9 h; half-life (clinical; 180 mg): 26 h; Cmax (clinical; 180 mg): 555 ng/mL; Tmax (clinical; 180 mg, Tmax): 6 h; half-life (clinical; 200 mg): 23 h; AUC (clinical; 200 mg): 9110 ng·h/mL; Cmax (clinical; 200 mg): 534 ng/mL; Tmax (clinical; 200 mg, Tmax): 5.8 h; AUC(0-t) (clinical; 250 mg, AUCtau (AUC0-8)): 2920 ng·h/mL; AUC(0-t) (clinical; 250 mg, AUCtau (AUC0-12)): 20600 ng·h/mL; Tmax (clinical; 250 mg, Tmax): 6.9 h; half-life (clinical; 360 mg): 28 h; Tmax (clinical; 360 mg, Tmax): 5.8 h; half-life (clinical; 500 mg): 28 h; Cmax (clinical; 500 mg): 1050 ng/mL; Tmax (clinical; 500 mg, Tmax): 4.9 h; half-life (clinical; 700 mg): 12.4 h; AUC (clinical; 700 mg): 19600 ng·h/mL; Cmax (clinical; 700 mg): 1450 ng/mL; Tmax (clinical; 700 mg, Tmax): 5.8 h; Tmax (clinical; Tmax): 4.1 h; Tmax (clinical; median Tmax across dose levels): 4 to 7 h; tumor ER levels reduced vs vehicle (ER): ≥ 94%

— US20260069588A1, “VEPDEGESTRANT FOR USE IN TREATING CANCER” (Arvinas Operation, Inc., priority 2022, published 2026)
